Results as given in publication PMC6887723, “Design and Synthesis of 4-(Heterocyclic Substituted Amino)-1H-Pyrazole-3-Carboxamide Derivatives and Their Potent Activity against Acute Myeloid Leukemia (AML)” (International Journal of Molecular Sciences, 2019).

How the values were obtained:
[1] = tested on: human cell lines of NCI60; test: NCI60 screening, overall; format: cell-based; conditions: for most cell lines
Text: (§1) With these findings, we submitted compound 8t to National Cancer Institute (NCI) to evaluate their antitumor efficacy against 60 human cancer cell lines.

[2] = tested on: phosphorylation of the FLT3; test: Western blot, phosphorylation of FLT3 in MV4-11 cells; format: cell-based, human; conditions: MV4-11, 4 h, 1 μM; dose-dependent, more potent than sorafenib
Method: Analysis of pFLT3, pSTAT5, pERK, pAKT, and pRb in vitro: to determine the levels of pFLT3, pSTAT5, pERK, pAKT, and pRb, cells were seeded in a 6-well cell culture plate at a density of 400,000 cells per well for MV4-11 in a total volume of 1800 μL and incubated overnight in medium containing 10% fetal bovine serum (Life Technologies, Rockville, MD, USA). Then 200 μL of serially diluted compounds were added to each well the next day. Cell lysates were harvested after 4 h and pFLT3, pSTAT5, pERK, pAKT, or pRb were quantified using assay kits for FLT3/Phospho-FLT3Tyr589/591, pSTAT5 (Tyr694)/total STAT5, pRb (Ser807)/total Rb (Nanjin keyGen Biotech Company, Nanjing, China) following the manufacturer’s protocols.

CDK4 = target: T1, CDK4 (Homo sapiens, UniProt P11802); test: CDK4 kinase activity assay (Hot-Spot); format: biochemical; conditions: 10 μM ATP; mean ± SD, three independent experiments
T1 construct: purchased Reaction Biology Corp
Method: Activities of kinases were determined using Hot-SpotSM kinase assay which was performed by Reaction Biology Corp. (Malvern PA, USA) as described previously.

BaF3 (FLT3 (ITD-F691L)) = test: Antiproliferative activity in BaF3 cells transformed with FLT3-ITD-F691L; format: cell-based; conditions: Mus musculus, Table S2
MV4-11 = test: Cell growth inhibition assay (CellTiter-Glo); format: cell-based; conditions: Homo sapiens, 72 h, highest test concentration 1 μM, mean ± SD, three independent experiments
Method: The human AML cell line MV4-11 was purchased from the American Type Culture Collection (ATCC) (Manassas, VA, USA). MV4-11 was cultured in IMDM media (Corning, Crown Bioscience Inc., Taicang, China) with 10% FBS and supplemented with 2% L-glutamine and 1% pen/strep. The MV4-11 cell line was maintained in culture media at 37 °C with 5% CO2. The effects of target compounds on MV4-11 proliferation was performed by Crown Bioscience Inc. Cells were grown in 96-well culture plates (10,000/well). The compounds of various concentrations were added into the plates. Cell proliferation was determined after treatment with compounds for 72 h. Cell viability was measured using the CellTiter-Glo assay (Promega, Crown Bioscience Inc., Taicang, China) according to the manufacturer’s instructions, and luminescence was measured in a multilabel reader (Envision2014, PerkinElmer, Crown Bioscience Inc., Taicang, China). Data were normalized to the control group (DMSO) and represented by the mean of three independent measurements with standard error of <20%. IC50 values were calculated using Prism 5.0 (GraphPad Software, San Diego, CA, USA).

LOX IMVI = test: NCI60 screening; format: cell-based; conditions: Homo sapiens, Melanoma panel
Text: as §1

EKVX = test: NCI60 screening; format: cell-based; conditions: Homo sapiens, Non-Small Cell Lung Cancer panel
Text: as §1

COLO 205 = test: NCI60 screening; format: cell-based; conditions: Homo sapiens, Colon Cancer panel
Text: as §1

SF-539 = test: NCI60 screening; format: cell-based; conditions: Homo sapiens, CNS Cancer panel
Text: as §1

RXF 393 = test: NCI60 screening; format: cell-based; conditions: Homo sapiens, Renal Cancer panel
Text: as §1

MCF7 = test: NCI60 screening; format: cell-based; conditions: Homo sapiens, Breast Cancer panel
Text: as §1

SK-MEL-5 = test: NCI60 screening; format: cell-based; conditions: Homo sapiens, Melanoma panel
Text: as §1

OVCAR-3 = test: NCI60 screening; format: cell-based; conditions: Homo sapiens, Ovarian Cancer panel
Text: as §1

NCI-H460 = test: NCI60 screening; format: cell-based; conditions: Homo sapiens, Non-Small Cell Lung Cancer panel
Text: as §1

HCT-15 = test: NCI60 screening; format: cell-based; conditions: Homo sapiens, Colon Cancer panel
Text: as §1

SF-295 = test: NCI60 screening; format: cell-based; conditions: Homo sapiens, CNS Cancer panel
Text: as §1

SNB-75 = test: NCI60 screening; format: cell-based; conditions: Homo sapiens, CNS Cancer panel
Text: as §1

DU-145 = test: NCI60 screening; format: cell-based; conditions: Homo sapiens, Prostate Cancer panel
Text: as §1

OVCAR-5 = test: NCI60 screening; format: cell-based; conditions: Homo sapiens, Ovarian Cancer panel
Text: as §1

786-0 = test: NCI60 screening; format: cell-based; conditions: Homo sapiens, Renal Cancer panel
Text: as §1

MDA-MB-468 = test: NCI60 screening; format: cell-based; conditions: Homo sapiens, Breast Cancer panel
Text: as §1

SK-MEL-2 = test: NCI60 screening; format: cell-based; conditions: Homo sapiens, Melanoma panel
Text: as §1

CCRF-CEM = test: NCI60 screening; format: cell-based; conditions: Homo sapiens, Leukemia panel
Text: as §1

NCI-H522 = test: NCI60 screening; format: cell-based; conditions: Homo sapiens, Non-Small Cell Lung Cancer panel
Text: as §1

MOLT-4 = test: NCI60 screening; format: cell-based; conditions: Homo sapiens, Leukemia panel
Text: as §1

HL-60(TB) = test: NCI60 screening; format: cell-based; conditions: Homo sapiens, Leukemia panel
Text: as §1

MDA-MB-231 = test: NCI60 screening; format: cell-based; conditions: Homo sapiens, Breast Cancer panel
Text: as §1

RPMI-8226 = test: NCI60 screening; format: cell-based; conditions: Homo sapiens, Leukemia panel
Text: as §1

PC-3 = test: NCI60 screening; format: cell-based; conditions: Homo sapiens, Prostate Cancer panel
Text: as §1

HOP-62 = test: NCI60 screening; format: cell-based; conditions: Homo sapiens, Non-Small Cell Lung Cancer panel
Text: as §1

OVCAR-8 = test: NCI60 screening; format: cell-based; conditions: Homo sapiens, Ovarian Cancer panel
Text: as §1

SK-OV-3 = test: NCI60 screening; format: cell-based; conditions: Homo sapiens, Ovarian Cancer panel
Text: as §1

HCT-116 = test: NCI60 screening; format: cell-based; conditions: Homo sapiens, Colon Cancer panel
Text: as §1

OVCAR-4 = test: NCI60 screening; format: cell-based; conditions: Homo sapiens, Ovarian Cancer panel
Text: as §1

A498 = test: NCI60 screening; format: cell-based; conditions: Homo sapiens, Renal Cancer panel
Text: as §1

UACC-257 = test: NCI60 screening; format: cell-based; conditions: Homo sapiens, Melanoma panel
Text: as §1

HT29 = test: NCI60 screening; format: cell-based; conditions: Homo sapiens, HT-29; Colon Cancer panel
Text: as §1

T1 sequence (P11802 whole entry): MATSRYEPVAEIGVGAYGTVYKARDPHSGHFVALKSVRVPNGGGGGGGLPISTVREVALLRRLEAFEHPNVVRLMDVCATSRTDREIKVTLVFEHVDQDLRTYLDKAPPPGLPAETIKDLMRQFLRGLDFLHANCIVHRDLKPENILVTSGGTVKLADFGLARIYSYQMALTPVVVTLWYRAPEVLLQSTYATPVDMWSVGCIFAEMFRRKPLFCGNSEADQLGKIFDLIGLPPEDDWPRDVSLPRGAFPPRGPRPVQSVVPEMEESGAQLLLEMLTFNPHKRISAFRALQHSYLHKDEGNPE
T1 sequence (P24385 whole entry partner): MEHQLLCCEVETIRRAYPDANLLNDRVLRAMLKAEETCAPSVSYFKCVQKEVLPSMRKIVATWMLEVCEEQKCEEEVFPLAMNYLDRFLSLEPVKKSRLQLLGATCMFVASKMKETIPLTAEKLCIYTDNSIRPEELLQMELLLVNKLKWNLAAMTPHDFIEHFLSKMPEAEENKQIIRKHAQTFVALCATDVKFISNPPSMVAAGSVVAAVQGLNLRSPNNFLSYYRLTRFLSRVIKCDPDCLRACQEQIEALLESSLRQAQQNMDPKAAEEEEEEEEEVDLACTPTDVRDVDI

IC50 (CDK4): 0.77 ± 0.007 nM
IC50 (BaF3 (FLT3 (ITD-F691L))): 21.9 nM
IC50 (MV4-11): 1.22 ± 0.06 nM
SMILES: O=C(Nc1ccc(N2CCNCC2)cc1)c1n[nH]cc1Nc1ncnc2sc3c(c12)CCC3 [Compound 8t]
GI50 [1]: < 1000 nM
phosphorylation of the FLT3 [2]: eliminated
GI50 (LOX IMVI): 200 nM
GI50 (EKVX): 60 nM
GI50 (COLO 205): 120 nM
GI50 (SF-539): 390 nM
GI50 (RXF 393): 390 nM
GI50 (MCF7): 160 nM
GI50 (SK-MEL-5): 250 nM
GI50 (OVCAR-3): 230 nM
GI50 (NCI-H460): 60 nM
GI50 (HCT-15): 220 nM
GI50 (SF-295): 270 nM
GI50 (SNB-75): 50 nM
GI50 (DU-145): 300 nM
GI50 (OVCAR-5): 270 nM
GI50 (786-0): 360 nM
GI50 (MDA-MB-468): 420 nM
GI50 (SK-MEL-2): 1160 nM
GI50 (CCRF-CEM): 220 nM
GI50 (NCI-H522): 210 nM
GI50 (MOLT-4): 80 nM
GI50 (HL-60(TB)): 1150 nM
GI50 (MDA-MB-231): 1930 nM
GI50 (RPMI-8226): 890 nM
GI50 (PC-3): 180 nM
GI50 (HOP-62): 370 nM
GI50 (OVCAR-8): 360 nM
GI50 (SK-OV-3): 260 nM
GI50 (HCT-116): 110 nM
GI50 (OVCAR-4): 220 nM
GI50 (A498): 140 nM
GI50 (UACC-257): 480 nM
GI50 (HT29): 260 nM
